# Molecular target: CYP102A1 (Priestia megaterium, UniProt P14779, E144G/E268V/F82I/F88V/L189Q/N214S/R48L)
# Assay: UV-visible spectral binding titration (type II shift); also turnover by HPLC with NADPH-generating system (Km […])
# Sequence of CYP102A1 (P14779 whole entry R48L/F82I/F88V/E144G/L189Q/N214S/E268V): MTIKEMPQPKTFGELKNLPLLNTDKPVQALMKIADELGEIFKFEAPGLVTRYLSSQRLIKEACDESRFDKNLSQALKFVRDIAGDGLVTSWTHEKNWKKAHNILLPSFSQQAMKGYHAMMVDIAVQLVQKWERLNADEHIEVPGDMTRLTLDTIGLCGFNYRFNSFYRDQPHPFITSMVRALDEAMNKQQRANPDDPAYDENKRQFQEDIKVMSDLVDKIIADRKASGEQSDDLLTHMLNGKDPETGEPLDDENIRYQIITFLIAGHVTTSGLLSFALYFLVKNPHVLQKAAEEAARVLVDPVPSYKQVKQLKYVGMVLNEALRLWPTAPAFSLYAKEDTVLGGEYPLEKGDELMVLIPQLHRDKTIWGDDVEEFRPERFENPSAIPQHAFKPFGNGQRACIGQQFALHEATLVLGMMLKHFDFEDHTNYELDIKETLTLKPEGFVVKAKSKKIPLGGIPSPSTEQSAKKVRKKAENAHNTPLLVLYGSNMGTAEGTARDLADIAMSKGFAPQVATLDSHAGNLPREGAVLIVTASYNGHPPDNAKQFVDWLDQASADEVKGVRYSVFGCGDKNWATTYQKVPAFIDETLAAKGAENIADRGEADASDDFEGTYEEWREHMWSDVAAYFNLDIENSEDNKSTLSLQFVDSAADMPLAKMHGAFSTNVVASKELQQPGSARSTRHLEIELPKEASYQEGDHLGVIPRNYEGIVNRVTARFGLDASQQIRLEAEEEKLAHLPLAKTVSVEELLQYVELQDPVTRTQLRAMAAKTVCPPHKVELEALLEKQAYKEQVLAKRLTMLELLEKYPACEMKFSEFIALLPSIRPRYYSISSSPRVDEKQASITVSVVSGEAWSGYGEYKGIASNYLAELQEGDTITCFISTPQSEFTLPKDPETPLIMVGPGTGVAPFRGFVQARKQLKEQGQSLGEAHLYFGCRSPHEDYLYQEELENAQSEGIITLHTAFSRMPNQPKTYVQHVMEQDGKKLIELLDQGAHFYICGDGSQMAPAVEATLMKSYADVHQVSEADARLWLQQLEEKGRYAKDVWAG
structure (smiles),measurement,value
CC1=CCC(O)(C(C)C)CC1 (racemic) [terpinen-4-ol],Kd,920 ± 260 nM

# — article PMC11016761, “Production of Mono-Hydroxylated Derivatives of Terpinen-4-ol by Bacterial CYP102A1 Enzymes” (Journal of Microbiology and Biotechnology, 2023)
